# Source: ChEMBL document CHEMBL1255447, “Efflux pumps, OprD porin, AmpC beta-lactamase, and multiresistance in Pseudomonas aeruginosa isolates from cystic fibrosis patients” (2010)
# What was measured:
# Pseudomonas aeruginosa [1] = assay: Antimicrobial activity against Pseudomonas aeruginosa isolate 1530c from fibrosis patient by Etest; format: functional
# Pseudomonas aeruginosa [2] = assay: Antimicrobial activity against Pseudomonas aeruginosa isolate 1529c from fibrosis patient by Etest; format: functional
# Pseudomonas aeruginosa [3] = assay: Antimicrobial activity against Pseudomonas aeruginosa isolate 1495c from fibrosis patient by Etest; format: functional
# Pseudomonas aeruginosa [4] = assay: Antimicrobial activity against Pseudomonas aeruginosa isolate 1333c from fibrosis patient by Etest; format: functional
# Pseudomonas aeruginosa [5] = assay: Antimicrobial activity against Pseudomonas aeruginosa R70 Etest; format: functional
# Pseudomonas aeruginosa [6] = assay: Antimicrobial activity against Pseudomonas aeruginosa AHP Etest; format: functional
# Pseudomonas aeruginosa [7] = assay: Antimicrobial activity against Pseudomonas aeruginosa isolate 1352c from fibrosis patient by Etest; format: functional
# Pseudomonas aeruginosa [8] = assay: microbe, parasite or virus in culture; details: isolate 13120
# Description: Antimicrobial activity against Pseudomonas aeruginosa isolate 13120 from fibrosis patient by Etest
# Pseudomonas aeruginosa [9] = assay: Antimicrobial activity against Pseudomonas aeruginosa isolate 13167 from fibrosis patient by Etest; format: functional
# Pseudomonas aeruginosa [10] = assay: Antimicrobial activity against Pseudomonas aeruginosa R20 Etest; format: functional
# Pseudomonas aeruginosa [11] = assay: Antimicrobial activity against Pseudomonas aeruginosa Z799/61 by Etest; format: functional
# Pseudomonas aeruginosa [12] = assay: Antimicrobial activity against Pseudomonas aeruginosa isolate 1240 from fibrosis patient by Etest; format: functional
# Pseudomonas aeruginosa [13] = assay: Antimicrobial activity against Pseudomonas aeruginosa isolate 15107 from fibrosis patient by Etest; format: functional
# Pseudomonas aeruginosa [14] = assay: Antimicrobial activity against Pseudomonas aeruginosa isolate 1693c from fibrosis patient by Etest; format: functional
# Pseudomonas aeruginosa [15] = assay: Antimicrobial activity against Pseudomonas aeruginosa isolate 3149 from fibrosis patient by Etest; format: functional
# Pseudomonas aeruginosa [16] = assay: Antimicrobial activity against Pseudomonas aeruginosa M1251 by Etest
# Pseudomonas aeruginosa [17] = assay: microbe, parasite or virus in culture; details: 2779-con
# Description: Antimicrobial activity against Pseudomonas aeruginosa 2779-con by Etest
# Pseudomonas aeruginosa [18] = assay: Antimicrobial activity against Pseudomonas aeruginosa 1405-con D2 by Etest; format: functional
# Pseudomonas aeruginosa [19] = assay: Antimicrobial activity against Pseudomonas aeruginosa isolate 16008 from fibrosis patient by Etest; format: functional
# Pseudomonas aeruginosa [20] = assay: Antimicrobial activity against Pseudomonas aeruginosa isolate 14169c from fibrosis patient by Etest; format: functional
# Pseudomonas aeruginosa [21] = assay: Antimicrobial activity against Pseudomonas aeruginosa isolate 1248c from fibrosis patient by Etest; format: functional
# Pseudomonas aeruginosa [22] = assay: Antimicrobial activity against Pseudomonas aeruginosa isolate 1681c from fibrosis patient by Etest; format: functional
# Pseudomonas aeruginosa [23] = assay: Antimicrobial activity against Pseudomonas aeruginosa isolate 17112 from fibrosis patient by Etest; format: functional
# Pseudomonas aeruginosa [24] = assay: Antimicrobial activity against Pseudomonas aeruginosa isolate 1253 from fibrosis patient by Etest; format: functional
# Pseudomonas aeruginosa [25] = assay: Antimicrobial activity against Pseudomonas aeruginosa isolate 1712c from fibrosis patient by Etest; format: functional
# Pseudomonas aeruginosa [26] = assay: Antimicrobial activity against Pseudomonas aeruginosa isolate 1247c from fibrosis patient by Etest; format: functional
# Pseudomonas aeruginosa [27] = assay: Antimicrobial activity against Pseudomonas aeruginosa isolate 1665 from fibrosis patient by Etest; format: functional
# Pseudomonas aeruginosa [28] = assay: Antimicrobial activity against Pseudomonas aeruginosa isolate 12142c from fibrosis patient by Etest; format: functional
# Pseudomonas aeruginosa [29] = assay: Antimicrobial activity against Pseudomonas aeruginosa isolate 17145c from fibrosis patient by Etest; format: functional
# Pseudomonas aeruginosa [30] = assay: Antimicrobial activity against Pseudomonas aeruginosa isolate 15110c from fibrosis patient by Etest; format: functional
# Pseudomonas aeruginosa [31] = assay: Antimicrobial activity against Pseudomonas aeruginosa isolate 12102 from fibrosis patient by Etest; format: functional
# Pseudomonas aeruginosa [32] = assay: Antimicrobial activity against Pseudomonas aeruginosa isolate 1726 from fibrosis patient by Etest; format: functional
Molecule,MIC (Pseudomonas aeruginosa [1]) [µg/mL],MIC (Pseudomonas aeruginosa [2]) [µg/mL],MIC (Pseudomonas aeruginosa [3]) [µg/mL],MIC (Pseudomonas aeruginosa [4]) [µg/mL],MIC (Pseudomonas aeruginosa [5]) [µg/mL],MIC (Pseudomonas aeruginosa [6]) [µg/mL],MIC (Pseudomonas aeruginosa [7]) [µg/mL],MIC (Pseudomonas aeruginosa [9]) [µg/mL],MIC (Pseudomonas aeruginosa [10]) [µg/mL],MIC (Pseudomonas aeruginosa [11]) [µg/mL],MIC (Pseudomonas aeruginosa [12]) [µg/mL],MIC (Pseudomonas aeruginosa [13]) [µg/mL],MIC (Pseudomonas aeruginosa [14]) [µg/mL],MIC (Pseudomonas aeruginosa [15]) [µg/mL],MIC (Pseudomonas aeruginosa [18]) [µg/mL],MIC (Pseudomonas aeruginosa [19]) [µg/mL],MIC (Pseudomonas aeruginosa [20]) [µg/mL],MIC (Pseudomonas aeruginosa [21]) [µg/mL],MIC (Pseudomonas aeruginosa [22]) [µg/mL],MIC (Pseudomonas aeruginosa [23]) [µg/mL],other results
NC[C@H]1O[C@H](O[C@H]2[C@H](O)[C@@H](O[C@H]3O[C@H](CO)[C@@H](O)[C@H](N)[C@H]3O)[C@H](N)C[C@@H]2N)[C@H](N)C[C@@H]1O [TOBRAMYCIN],4,16,8,8,0.5,≤ 0.12,16,4,0.5,0.25,0.5,2,2,> 32,2,4,4,32,16,0.5,MIC (Pseudomonas aeruginosa [8]): 0.25 µg/mL; MIC (Pseudomonas aeruginosa [16]): 0.25 µg/mL; MIC (Pseudomonas aeruginosa [17]): 1 µg/mL; MIC (Pseudomonas aeruginosa [24]): 4 µg/mL; MIC (Pseudomonas aeruginosa [25]): 16 µg/mL; MIC (Pseudomonas aeruginosa [26]): 8 µg/mL; MIC (Pseudomonas aeruginosa [27]): 32 µg/mL; MIC (Pseudomonas aeruginosa [28]): > 32 µg/mL; MIC (Pseudomonas aeruginosa [29]): 16 µg/mL; MIC (Pseudomonas aeruginosa [30]): > 32 µg/mL; MIC (Pseudomonas aeruginosa [31]): 1 µg/mL; MIC (Pseudomonas aeruginosa [32]): 0.5 µg/mL
GENTAMICIN,32,> 32,> 64,> 32,1,< 0.12,> 32,32,< 0.25,< 0.12,2,> 32,16,> 32,2,16,32,> 32,32,1,MIC (Pseudomonas aeruginosa [24]): 16 µg/mL; MIC (Pseudomonas aeruginosa [25]): > 32 µg/mL; MIC (Pseudomonas aeruginosa [26]): > 32 µg/mL; MIC (Pseudomonas aeruginosa [27]): 16 µg/mL; MIC (Pseudomonas aeruginosa [28]): > 32 µg/mL; MIC (Pseudomonas aeruginosa [29]): 32 µg/mL; MIC (Pseudomonas aeruginosa [30]): > 32 µg/mL; MIC (Pseudomonas aeruginosa [31]): 4 µg/mL; MIC (Pseudomonas aeruginosa [32]): 2 µg/mL
